Data as given in PMC5454392, “Selective BET bromodomain inhibition as an antifungal therapeutic strategy” (Nature Communications, 2017).
“Also recorded” adds a separate entry of the source.

What was measured:
human Brd4 BD1 [1] = biological target: T1, human Brd4 BD1 (Homo sapiens, UniProt O60885); test: Isothermal titration calorimetry (ITC); type: binding; design: human Brd4 BD1 (residues 22–204); His tag with TEV site (N, cleaved yes); made in house; host or cells: E. coli BL21(DE3); details: ITC
Procedure: (§1) Proteins used for crystallization and for ITC. […] Cells were resuspended in buffer A (50 mM Tris-HCl pH 7.5, 300 mM NaCl, 10% glycerol, 25 mM imidazole, 5 mM β-mercaptoethanol and protease inhibitors) and lysed by sonication. The cleared lysate was incubated with Ni-NTA resin (Qiagen) and washed with buffer A containing 0.5 M NaCl. Proteins were eluted with 250 mM imidazole, dialysed overnight in the presence of His-tagged TEV protease against buffer A containing no imidazole and incubated with Ni-NTA resin to remove His-tagged species. Proteins were further purified on a Superdex 75 10/300 (GE Healthcare) column in 50 mM Hepes pH 7.5, 150 mM NaCl, 0.5 mM dithiothreitol (DTT). Proteins were concentrated to >20 mg ml^−1 on a Centricon device (Millipore) and used for ITC, TSA and crystallization experiments. […] Expression and purification were performed as above, except that buffer A was replaced by buffer B (50 mM Hepes pH 7.5, 500 mM NaCl, 5% glycerol, 5 mM imidazole and protease inhibitors) and gel filtration was performed in 10 mM Hepes pH 7.5, 500 mM NaCl and 5% glycerol.
(§2) Calorimetric experiments were performed on a NanoITC calorimeter (TA Instruments) at 25 °C while stirring at 250 r.p.m. All proteins were buffer exchanged by gel filtration into 50 mM Hepes pH 7.5, 150 mM NaCl, 0.5 mM DTT, except for SMARCA2 and SMARCA4A BDs, which were exchanged into 10 mM Hepes pH 7.5, 500 mM NaCl and 5% glycerol. […] Titrations consisted of an initial injection of 1.5 μl followed by 19 identical injections of 2.5 μl made at time intervals of 5 min. ITC data were corrected for the heat of dilution of injectant into buffer and analysed with software provided by the manufacturer using a single binding site model. The first data point was excluded from the analysis. Thermodynamic parameters determined from the ITC data are summarized in Supplementary Table 1.

CaBdf1 BD2 [2] = biological target: T2, CaBdf1 BD2 (Candida albicans, UniProt Q5A4W8); type: binding; design: made in house; host or cells: E. coli BL21(DE3); details: CaBdf1 BD2 WT; for Peptide array signal, raw data, Left: left replicate array; for Peptide array signal, raw data, Rigt: right replicate array
Procedure: (§3) In short, arrays were blocked and incubated with 1 μM of purified CaBdf1 BD1 or BD2. Arrays were incubated with recombinant BDs for 2 h at 4 °C in binding buffer (Tris-HCl 50 mM pH 7.4, NP-40 0.1%, NaCl 150 mM, glycerol 10%). […] Assays were performed in duplicate.
Target sequence in this assay (Q5A4W8 361-501): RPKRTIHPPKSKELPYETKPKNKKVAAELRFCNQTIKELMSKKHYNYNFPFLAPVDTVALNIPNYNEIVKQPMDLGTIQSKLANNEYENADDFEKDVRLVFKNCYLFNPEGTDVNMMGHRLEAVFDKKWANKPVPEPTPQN

[3] = test system: 32 representative human (BET and non-BET) BDs; test: BROMOscan profiling (DiscoverX); type: binding; details: 10 μM; 35% of control used as cutoff for significant inhibition
Procedure: (§4) BROMOscan profiling was performed by DiscoverX (Fremont, CA, USA). […] Ligand-loading densities were optimized as described.

SMARCA2 BD [4] = biological target: T3, SMARCA2 BD (Homo sapiens, UniProt P51531); test: BROMOscan profiling (DiscoverX); type: binding; details: as read by reviewer from the BROMOscan data
T3 construct: Human SMARCA2 and SMARCA4 BD plasmids bearing an N-terminal His tag and TEV protease site; His tag with TEV site (N, cleaved yes); 73250; host or cells: E. coli BL21(DE3)
T3 sequence (P51531 1378-1506 limits assumed): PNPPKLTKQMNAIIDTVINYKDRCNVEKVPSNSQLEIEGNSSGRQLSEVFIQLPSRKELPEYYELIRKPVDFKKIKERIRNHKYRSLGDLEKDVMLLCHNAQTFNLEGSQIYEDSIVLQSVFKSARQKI
Procedure: as §4

human Brd4 BD1 [5] = biological target: T1, human Brd4 BD1; test: BROMOscan profiling (DiscoverX); type: binding; design: purchased DiscoverX; host or cells: T7 phage grown in an E. coli host derived from BL21; details: 10 μM; as read by reviewer from the BROMOscan data
Procedure: as §4

CaBdf1 BD2 Y425F = biological target: T4, CaBdf1 BD2 Y425F (Candida albicans, UniProt Q5A4W8, Y425F); test: Histone peptide microarray binding, YF mutant; design: species or system C. albicans; details: CaBdf1 BD2 YF mutant; for Peptide array signal, raw data, Left: left replicate array; for Peptide array signal, raw data, Right: right replicate array
T4 construct: made in house; host or cells: E. coli BL21(DE3), inferred from the wild-type GST construct
T4 sequence (Q5A4W8 361-501 Y425F): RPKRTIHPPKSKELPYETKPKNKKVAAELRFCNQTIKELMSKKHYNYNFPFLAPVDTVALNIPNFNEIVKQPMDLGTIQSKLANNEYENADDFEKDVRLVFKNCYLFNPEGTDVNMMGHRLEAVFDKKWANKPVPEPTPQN
Procedure: (§5) In short, arrays were blocked and incubated with 1 μM of purified CaBdf1 BD1 or BD2. Arrays were incubated with recombinant BDs for 2 h at 4 °C in binding buffer (Tris-HCl 50 mM pH 7.4, NP-40 0.1%, NaCl 150 mM, glycerol 10%). […] Assays were performed in duplicate. Images were acquired on a Bio-Rad ChemiDoc XRS Imaging machine and data were quantified using the array analyser software provided by Active Motif.

CaBdf1 BD1 Y248F = biological target: T5, CaBdf1 BD1 Y248F (Candida albicans, UniProt Q5A4W8, Y248F); test: Histone peptide microarray binding, YF mutant; design: species or system C. albicans; details: CaBdf1 BD1 YF mutant; for Peptide array signal, raw data, Left: left replicate array; for Peptide array signal, raw data, Right: right replicate array
T5 construct: made in house; host or cells: E. coli BL21(DE3), inferred from the wild-type GST construct
T5 sequence (Q5A4W8 193-327 Y248F): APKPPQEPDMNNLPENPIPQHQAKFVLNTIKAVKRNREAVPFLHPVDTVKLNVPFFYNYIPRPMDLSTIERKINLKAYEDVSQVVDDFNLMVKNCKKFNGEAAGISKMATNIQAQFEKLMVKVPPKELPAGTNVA
Procedure: as §5

CaBdf1 BD1 [6] = biological target: T6, CaBdf1 BD1 (Candida albicans, UniProt Q5A4W8); type: binding; details: CaBdf1 BD1 WT; for Peptide array signal, raw data, Left: left replicate array; for Peptide array signal, raw data, Rigt: right replicate array
T6 construct: made in house; host or cells: E. coli BL21(DE3)
T6 sequence (Q5A4W8 193-327): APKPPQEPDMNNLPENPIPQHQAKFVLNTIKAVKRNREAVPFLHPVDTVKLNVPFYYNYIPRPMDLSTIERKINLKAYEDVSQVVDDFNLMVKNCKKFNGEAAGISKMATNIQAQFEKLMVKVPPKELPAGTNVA
Procedure: as §3

CaBdf1 BD2 [7] = biological target: T2, CaBdf1 BD2; test: HTRF assay, inhibition of BD binding to H4ac4 peptide; design: made in house; host or cells: E. coli BL21(DE3)
Target sequence in this assay (Q5A4W8 361-501): as the sequence (Q5A4W8 361-501) above

CaBdf1 BD2 [8] = biological target: T2, CaBdf1 BD2; test: Isothermal titration calorimetry (ITC); type: binding; design: His tag with TEV site (N, cleaved yes); made in house; host or cells: E. coli BL21(DE3)
Procedure: as §1, §2
Target sequence in this assay (Q5A4W8 386-491): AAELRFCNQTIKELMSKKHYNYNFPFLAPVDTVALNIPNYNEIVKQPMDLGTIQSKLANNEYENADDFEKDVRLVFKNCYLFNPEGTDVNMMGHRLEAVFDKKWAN

human Brd4 BD1 [9] = biological target: T1, human Brd4 BD1; test: HTRF assay, inhibition of BD binding to H4ac4 peptide; design: human Brd4 BD1 (residues 22–204); His tag with TEV site (N, cleaved yes); made in house; host or cells: E. coli BL21(DE3); details: HTRF
SMARCA4 BD = biological target: T7, SMARCA4 BD (Homo sapiens, UniProt P51532); test: Isothermal titration calorimetry (ITC); type: binding
T7 construct: Human SMARCA2 and SMARCA4 BD plasmids bearing an N-terminal His tag and TEV protease site; His tag with TEV site (N, cleaved yes); 74664; host or cells: E. coli BL21(DE3)
T7 sequence (P51532 1453-1564 limits assumed): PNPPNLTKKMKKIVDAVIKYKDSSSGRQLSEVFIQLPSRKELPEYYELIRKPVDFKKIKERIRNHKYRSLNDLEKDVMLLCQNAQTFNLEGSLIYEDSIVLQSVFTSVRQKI
Procedure: as §1, §2

CaBdf1 BD1 [10] = biological target: T6, CaBdf1 BD1; test: Isothermal titration calorimetry (ITC); type: binding; details: ITC, 25 °C
Procedure: as §1, §2

SMARCA2 BD [11] = biological target: T3, SMARCA2 BD; test: Isothermal titration calorimetry (ITC); type: binding
Procedure: as §1, §2

C. albicans = C. albicans growth assay in liquid media; type: cell-based; details: liquid media, WT allele repressed
Procedure: Growth on liquid media. C. albicans strains were grown at 30 °C in SC medium to an OD600 of 0.5–0.8. For the evaluation of growth defects related to Bdf1 mutations, log-phase growing cells were counted using a Neubauer chamber and diluted in liquid media to a final concentration of 5,400 cells per ml per well in a sterile 96-well plate. Dox (50 μg ml^−1) or methionine (5 mM)/cysteine (0.25 mM) were added to the media if required. Plates were incubated at 30 °C and OD600 was measured using a Multiskan FC Microplate Photometer (Thermo Fisher). For the evaluation of chemical compounds, strains were grown in SC medium supplemented with 50 μg ml^−1 Dox or 5 mM methionine/0.25 mM cysteine 24 h before counting and then seeded in 96-well plates at the same concentration as mentioned above, with or without chemical compounds. Statistical tests were performed using two-sided Welch t-tests.

CaBdf1 BD1 [12] = biological target: T6, CaBdf1 BD1; test: HTRF assay, inhibition of BD binding to H4ac4 peptide; design: species or system C. albicans; details: HTRF, H4ac4 peptide; read-out: IC50
human Brd4 BD2 = biological target: T8, human Brd4 BD2 (Homo sapiens, UniProt O60885); test: as above
T8 construct: GST-tagged human Brd4 BD2 (residues 349–460) was purchased from Reaction Biology Corp; purchased Reaction Biology Corp

**Q.** What does the source list for `O=C1c2ccccc2Sc2cc(-c3noc(-c4cnccn4)n3)ccc2N1C1CC1` [Compound 1]?
**A.** binding to Brd4 BD1 (in words) (human Brd4 BD1 [1]): no or only modest binding and inhibition; Peptide array signal, Normalized (0 to 100%), Average (CaBdf1 BD2 [2]): 0.259%; Peptide array signal, raw data, Left (CaBdf1 BD2 [2]): 0.004804; Peptide array signal, raw data, Rigt (CaBdf1 BD2 [2]): 0.01167; activity against human BDs in BROMOscan (in words) [3]: no significant inhibition was detected; also recorded: no significant activity; also recorded: do not significantly inhibit; inhibition at 10 µM (SMARCA2 BD [4]): ~65%; inhibition in BROMOscan (in words) (human Brd4 BD1 [5]): hardly inhibits; Peptide array signal, raw data, Left (CaBdf1 BD2 Y425F): 0; Peptide array signal, raw data, Right (CaBdf1 BD2 Y425F): 0.001456; Peptide array signal, raw data, Left (CaBdf1 BD1 Y248F): 0; Peptide array signal, raw data, Right (CaBdf1 BD1 Y248F): 0.001715; Peptide array signal, Normalized (0 to 100%), Average (CaBdf1 BD1 [6]): 0%; Peptide array signal, raw data, Left (CaBdf1 BD1 [6]): 0; Peptide array signal, raw data, Rigt (CaBdf1 BD1 [6]): 0.003741; inhibition of CaBdf1 BD2 (in words) (CaBdf1 BD2 [7]; HTRF): no or only modest binding and inhibition; binding to CaBdf1 BD2 (in words) (CaBdf1 BD2 [8]; ITC): no or only modest binding and inhibition; IC50 (human Brd4 BD1 [9]; H4ac4 peptide): ~40 µM; inhibition of Brd4 BD1 (in words) (human Brd4 BD1 [9]; highest concentration 20 μM): no or only modest binding and inhibition; binding to SMARCA4 BD (in words) (SMARCA4 BD): no detectable binding; also recorded: did not detectably bind; N (stoichiometry) (CaBdf1 BD1 [10]): 0.91 ± 0.06; TΔS (CaBdf1 BD1 [10]): 4.885 kcal/mol; ΔH (CaBdf1 BD1 [10]): -2.34 ± 0.621 kcal/mol; binding to SMARCA2 BD (in words) (SMARCA2 BD [11]): no detectable binding; also recorded: did not detectably bind; antifungal activity against mutant strains in which either BD1 or BD2 was inactivated (in words) (C. albicans): little antifungal activity; also recorded: did not significantly inhibit growth

**Q.** What does the source list for `Cc1ccc(Nc2c(-c3ccc(O)cc3)nc3c(C)cccn23)cc1` [Compound 2]?
**A.** Peptide array signal, Normalized (0 to 100%), Average (CaBdf1 BD2 [2]): 0.37%; Peptide array signal, raw data, Left (CaBdf1 BD2 [2]): 0.005491; Peptide array signal, raw data, Rigt (CaBdf1 BD2 [2]): 0.01304; activity against human BDs in BROMOscan (in words) [3]: no significant inhibition was detected; also recorded: do not significantly inhibit; Peptide array signal, raw data, Left (CaBdf1 BD2 Y425F): 0.0004854; Peptide array signal, raw data, Right (CaBdf1 BD2 Y425F): 0.002427; Peptide array signal, raw data, Left (CaBdf1 BD1 Y248F): 0.003429; Peptide array signal, raw data, Right (CaBdf1 BD1 Y248F): 0.002743; Peptide array signal, Normalized (0 to 100%), Average (CaBdf1 BD1 [6]): 0.0725%; Peptide array signal, raw data, Left (CaBdf1 BD1 [6]): 0.0005345; Peptide array signal, raw data, Rigt (CaBdf1 BD1 [6]): 0.004276; IC50 (CaBdf1 BD2 [7]): 1.1 µM; Kd (CaBdf1 BD2 [8]): 2.1 µM; N (stoichiometry) (CaBdf1 BD2 [8]; ITC, 25 °C): 1.21 ± 0.11; TΔS (CaBdf1 BD2 [8]; ITC, 25 °C): 2.01 kcal/mol; ΔG (CaBdf1 BD2 [8]; ITC, 25 °C): -7.741 kcal/mol; ΔH (CaBdf1 BD2 [8]; ITC, 25 °C): -5.74 ± 0.96 kcal/mol; IC50 (CaBdf1 BD1 [12]): ≥ 40 µM; IC50 (human Brd4 BD2): ≥ 40 µM; binding to SMARCA4 BD (in words) (SMARCA4 BD): no detectable binding; also recorded: no significant inhibition; binding to SMARCA2 BD (in words) (SMARCA2 BD [11]): no detectable binding; also recorded: no significant inhibition; antifungal activity against mutant strains in which either BD1 or BD2 was inactivated (in words) (C. albicans): little antifungal activity
